Measurements reported in patent publication US9655362B2, “Fungicidal composition and method for controlling plant diseases” (ISHIHARA SANGYO KAISHA, LTD., priority 2003, dated 2017).
“And” between values parts separate entries of the source, which are not always exact repeats. Equal values may be shown once.

What was measured:
Erysiphe graminis = assay: Test on preventive effect against wheat powdery mildew; format: in vivo; parameters: key: % = treated/untreated average lesion area ×100
Description: Wheat (cultivar: […] After the chemical solution dried, conidia of Erysiphe graminis were dusted and inoculated and maintained in a constant temperature chamber at 20° C. […] The average lesion area in the non-treated plot was determined in the same manner as for the treated plot except that water was applied by a spray gun instead of the chemical solution. Disease rate=(a/b)×100 a: average lesion area in the treated plot b: average lesion area in the non-treated plot Theoretical values were calculated in accordance with the Colby's formula. The fungicidal composition of the present invention has a synergistic effect regarding the test on preventive effect against wheat powdery mildew, when the experimental value is lower than the theoretical value.

Sphaerotheca cucurbitae = assay: Test on preventive effect against cucumber powdery mildew; format: in vivo; parameters: scale not given here
Description: Cucumber (cultivar: Suyo) was cultivated in a plastic pot having a diameter of 7.5 cm, and when it reached 1.5-leaf stage, 10 ml of a chemical solution having the compound of the present invention adjusted to a prescribed concentration, was applied by a spray gun. After the chemical solution dried, a suspension of conidia of Sphaerotheca cucurbitae was sprayed and inoculated and maintained in a constant temperature chamber at 20° C. From 6 to 11 days after the inoculation, the area of sporulation was investigated, and the disease rate was determined in the same manner as in Test Example 3, and the results are shown in Tables 54 to 96. The average lesion area in the non-treated plot was determined in the same manner as for the treated plot except that water was applied by a spray gun instead of the chemical solution.
Further, theoretical values by the Colby's formula are shown in brackets in Tables 54 to 96.

[1] = other fungicide alone, dose 1.6 g/ha
[2] = other fungicide alone, concentration 31 ppm
[3] = other fungicide alone, concentration 63 ppm
[4] = Compound No. alone, concentration 16 ppm
[5] = single agent, 4 ppm, area of sporulation 6 to 11 days after inoculation
[6] = single agent, 8 ppm, area of sporulation 6 to 11 days after inoculation
[7] = single agent, 1 ppm, area of sporulation 6 to 11 days after inoculation
[8] = single agent, 2 ppm, area of sporulation 6 to 11 days after inoculation
[9] = other fungicide alone, dose 12.5 g/ha
[10] = other fungicide alone, concentration 8 ppm
[11] = other fungicide alone, concentration 4 ppm
[12] = other fungicide alone, concentration 16 ppm
[13] = other fungicide alone, dose 3.1 g/ha
[14] = other fungicide alone, dose 6.3 g/ha
[15] = other fungicide alone, concentration 2 ppm

With `Fc1ccc([C@]2(Cn3cncn3)O[C@H]2c2ccccc2Cl)cc1` (racemic) [Epoxiconazole] the Disease rate (Erysiphe graminis; [1]) was 100.

With `CO/C=C(/C(=O)OC)c1ccccc1Oc1cc(Oc2ccccc2C#N)ncn1` [Azoxystrobin] the Disease rate (Sphaerotheca cucurbitae; [2]) was 100 and 80.4, the Disease rate (Sphaerotheca cucurbitae; [3]) was 100 and the Disease rate (Sphaerotheca cucurbitae; other fungicide alone, concentration 125 ppm) was 100.

`COc1cc(C)c(C(=O)c2c(F)ncc(C)c2I)c(OC)c1OC` [Compound No. 18, 3-(2,3,4-trimethoxy-6-methylbenzoyl)-2-fluoro-4-iodo-5-methylpyridine] showed a melting point of 140 to 141 °C.

In the case of `COc1cc(C)c(C(=O)c2c(OC)ncc(Br)c2Cl)c(OC)c1OC` [Compound No. 23, 3-(2,3,4-trimethoxy-6-methylbenzoyl)-5-bromo-4-chloro-2-methoxypyridine], the Disease rate (Sphaerotheca cucurbitae; Compound No. alone, concentration 2 ppm) is reported as 100, the Disease rate (Sphaerotheca cucurbitae; [4]) is reported as 30.7 and the Disease rate (Sphaerotheca cucurbitae; [5]) is reported as 79.2. For the same molecule, the Disease rate (Sphaerotheca cucurbitae; [6]) was 19.8, the Disease rate (Sphaerotheca cucurbitae; single agent, 16 ppm, area of sporulation 6 to 11 days after inoculation) was 2.4 and the melting point was 84 to 87 °C.

Work on `COc1cc(C)c(C(=O)c2c(OC)ncc(Cl)c2C)c(OC)c1OC` [Compound No. 35, 3-(2,3,4-trimethoxy-6-methylbenzoyl)-5-chloro-2-methoxy-4-methylpyridine] yielded a Disease rate (Sphaerotheca cucurbitae; [4]) of 80.4, a Disease rate (Sphaerotheca cucurbitae; [7]) of 56.8 and a Disease rate (Sphaerotheca cucurbitae; [8]) of 14.2.

With `COc1cc(C)c(C(=O)c2c(Cl)cnc(Cl)c2C(F)(F)F)c(OC)c1OC` [Compound No. 39, 4-(2,3,4-trimethoxy-6-methylbenzoyl)-2,5-dichloro-3-trifluoromethylpyridine] the Disease rate (Erysiphe graminis; Compound No. alone, dose 1.6 g/ha) was 58.8, the Disease rate (Sphaerotheca cucurbitae; [4]) was 20 and the Disease rate (Sphaerotheca cucurbitae; [5]) was 32.0. It also gave a Disease rate (Sphaerotheca cucurbitae; [6]) of 14.2 and a melting point of 106 to 109 °C.

`COc1cc(C)c(C(=O)c2c(OC)cnc(Cl)c2C(F)(F)F)c(OC)c1OC` [Compound No. 40, 4-(2,3,4-trimethoxy-6-methylbenzoyl)-2-chloro-3-trifluoromethyl-5-methoxypyridine] showed a Disease rate (Sphaerotheca cucurbitae; [7]) of 71.0, a Disease rate (Sphaerotheca cucurbitae; [8]) of 42.6 and a melting point of 117 to 119 °C.

`COc1cc(C)c(C(=O)c2c(OC)cncc2C(F)(F)F)c(OC)c1OC` [Compound No. 122, 4-(2,3,4-trimethoxy-6-methylbenzoyl)-3-methoxy-5-trifluoromethylpyridine] showed a melting point of 103 to 106 °C.

Work on `Cc1ccc(-c2c(Cl)nc(C#N)n2S(=O)(=O)N(C)C)cc1` [Cyazofamid] yielded a Disease rate (Sphaerotheca cucurbitae; [2]) of 100 and a Disease rate (Sphaerotheca cucurbitae; [3]) of 100.

In the case of `CC(C1CC1)C(O)(Cn1cncn1)c1ccc(Cl)cc1` (centres unmarked) [Cyproconazole], the Disease rate (Erysiphe graminis; [9]) is reported as 15.0.

With `CC(Cc1ccc(C(C)(C)C)cc1)CN1C[C@@H](C)O[C@@H](C)C1` (some centres unmarked) [Fenpropimorph] the Disease rate (Erysiphe graminis; other fungicide alone, dose 25 g/ha) was 100.

`O=c1c2cc(F)ccc2nc(-n2cncn2)n1-c1ccc(Cl)cc1Cl` [Fluquinconazole] showed a Disease rate (Erysiphe graminis; other fungicide alone, dose 50 g/ha) of 30.0, a Disease rate (Erysiphe graminis; other fungicide alone, dose 200 g/ha) of 7.5 and a Disease rate (Erysiphe graminis; other fungicide alone, dose 400 g/ha) of 2.5.

`Clc1ccc(CSC(Cn2cncn2)=Nc2ccc(Cl)cc2Cl)cc1` [Imibenconazole] showed a Disease rate (Sphaerotheca cucurbitae; [10]) of 100.

With `CCCCCCCCCCCCc1ccc(S(=O)(=O)O)cc1.CCCCCCCCCCCCc1ccc(S(=O)(=O)O)cc1.CCCCCCCCCCCCc1ccc(S(=O)(=O)O)cc1.NC(N)=NCCCCCCCCNCCCCCCCCN=C(N)N` [Iminoctadine albesilate] the Disease rate (Sphaerotheca cucurbitae; [11]) was 85.9 and 93.8, the Disease rate (Sphaerotheca cucurbitae; [10]) was 83.9 and 60.7 and 45.0 and the Disease rate (Sphaerotheca cucurbitae; [12]) was 35.3 and 30.0 and 49.4.

With `CC#Cc1cc(C)nc(Nc2ccccc2)n1` [Mepanipyrim] the Disease rate (Sphaerotheca cucurbitae; [10]) was 100.

`CC1(C)CCC(Cc2ccc(Cl)cc2)C1(O)Cn1cncn1` (centres unmarked) [Metconazole] gave a Disease rate (Erysiphe graminis; [1]) of 44.1, a Disease rate (Erysiphe graminis; [13]) of 19.6 and a Disease rate (Erysiphe graminis; [14]) of 4.9.

Work on `COc1cc(C)c(C(=O)c2c(OC)ccc(Br)c2C)c(OC)c1OC` [Metrafenone] yielded a Disease rate (Erysiphe graminis; [13]) of 100, a Disease rate (Erysiphe graminis; [14]) of 80.0 and a Disease rate (Erysiphe graminis; [9]) of 60.0.

For `CC1(C)COC(C)(CCCc2ccc(Cl)cc2)N1C(=O)n1ccnc1.CC1(C)COC(C)(CCCc2ccc(Cl)cc2)N1C(=O)n1ccnc1.O=C(O)/C=C/C(=O)O` (centres unmarked) [Oxpoconazole fumarate], the Disease rate (Sphaerotheca cucurbitae; [10]) was 100 and 80.0, the Disease rate (Sphaerotheca cucurbitae; [12]) was 100 and 60.0 and the Disease rate (Sphaerotheca cucurbitae; [2]) was 45.5 and 30.0.

Work on `CC1(C)COC(C)(CCCc2ccc(Cl)cc2)N1C(=O)n1ccnc1` (centres unmarked) [Oxpoconazole] yielded a Disease rate (Sphaerotheca cucurbitae; [6]) of 44.5.

Molecule `CCCC1COC(Cn2cncn2)(c2ccc(Cl)cc2Cl)O1` (centres unmarked) [Propiconazole] has a Disease rate (Erysiphe graminis; [13]) of 100 and a Disease rate (Erysiphe graminis; [9]) of 11.6.

With `CC(C)(C)C(O)(CCc1ccc(Cl)cc1)Cn1cncn1` (centres unmarked) [Tebuconazole] the Disease rate (Sphaerotheca cucurbitae; [15]) was 56.8 and the Disease rate (Sphaerotheca cucurbitae; [11]) was 71.0.

With `FC(F)C(F)(F)OCC(Cn1cncn1)c1ccc(Cl)cc1Cl` (centres unmarked) [Tetraconazole] the Disease rate (Erysiphe graminis; [13]) was 80.0, the Disease rate (Erysiphe graminis; [14]) was 35.0 and the Disease rate (Sphaerotheca cucurbitae; [15]) was 56.8. For the same molecule, the Disease rate (Sphaerotheca cucurbitae; [11]) was 56.8.

Work on `CC(C)(C)C(O)C(Oc1ccc(Cl)cc1)n1cncn1` (centres unmarked) [Triadimenol] yielded a Disease rate (Erysiphe graminis; [13]) of 65 and a Disease rate (Erysiphe graminis; [9]) of 19.0.

With Polyoxins the Disease rate (Sphaerotheca cucurbitae; [2]) was 100 and 80.4 and 80.0.
